Measured values reported in US11541055B2, “Inhibitors of human immunodeficiency virus replication” (ViiV Healthcare UK (No. 5) LIMITED, priority 2018, dated 2023).

How the values were obtained:
[1] = tested on: recombinant NL4-3 virus (Renilla luciferase) in MT-2 cells; assay: HIV cell culture assay (antiviral activity, luciferase readout); assay type: cell-based; settings: Renilla, NL43
Protocol: HIV cell culture assay—MT-2 cells, 293T cells and the proviral DNA clone of NL4-3 virus were obtained from the NIH AIDS Research and Reference Reagent Program. MT-2 cells were propagated in RPMI 1640 media supplemented with 10% heat inactivated fetal bovine serum (FBS), […]. The 293T cells were propagated in DMEM media supplemented with 10% heat inactivated FBS, […] penicillin G and […] streptomycin. A recombinant NL40.3 proviral clone, in which a section of the nef gene was replaced with the Renilla luciferase gene, was used to make the reference virus used in these studies. The recombinant virus was prepared through transfection of the recombinant NL4-3 proviral clone into 293T cells using Transit-293 Transfection Reagent from Minis Bio LLC (Madison, Wis.). Supernatent was harvested after 2-3 days and the amount of virus present was titered in MT-2 cells using luciferase enzyme activity as a marker by measuring luciferase enzyme activity. Luciferase was quantitated using the EnduRen Live Cell Substrate from Promega (Madison, Wis.). Antiviral activities of compounds toward the recombinant virus were quantified by measuring luciferase activity in MT-2 cells infected for 4-5 days with the recombinant virus in the presence of serial dilutions of the compound.
The 50% effective concentration (EC50) was calculated by using the exponential form of the median effect equation where (Fa)=1/[1+(ED50/drug conc.)m] (Johnson V A, Byington R T. Infectivity Assay. In Techniques in HIV Research. ed. Aldovini A, Walker B D. 71-76. New York: Stockton Press. 1990). The 50% inhibitory concentration (EC50) was calculated by using the exponential form of the median effect equation where percent inhibition=1/[1+(EC50/drug concentration)m], where m is a parameter that reflects the slope of the concentration-response curve.

[2] = Compound cytotoxicity, XTT-based colorimetric assay; assay type: cell-based; settings: human; uninfected MT2 cells, day 4, XTT
Protocol: Compound cytotoxicity and the corresponding CC50 values were determined using the same protocol as described in the antiviral assay except that uninfected cells were used. Cytotoxicity was assessed on day 4 in uninfected MT2 cells by using a XTT (2,3-bis[2-Methoxy-4-nitro-5-sulfophenyl]-2H-tetrazolium-5-carboxyanilide inner salt)-based colorimetric assay (Sigma-Aldrich, St Louis, Mo.).

SMILES | EC50 [1] [nM] | CC50 at 4 days [2] [nM]
Cn1nc(NS(C)(=O)=O)c2c(Cl)ccc(-n3c([C@H](Cc4cc(F)cc(F)c4)NC(=O)Cn4nc(C(F)F)c5c4C(F)(F)[C@@H]4C[C@H]54)nc4cc(-c5ncccc5C(F)(F)F)ccc4c3=O)c21 (atropisomer, axis not shown; (P)) [Example 30, N—((S)-1-((3P)-3-(4-chloro-1-methyl-3-(methylsulfonamido)-1H-indazol-7-yl)-4-oxo-7-(3-(trifluoromethyl)pyridin-2-yl)-3,4-dihydroquinazolin-2-yl)-2-(3,5-difluorophenyl)ethyl)-2-((3bS,4aR)-3-(difluoromethyl)-5,5-difluoro-3b,4,4a,5-tetrahydro-1H-cyclopropa[3,4]cyclopenta[1,2-c]pyrazol-1-yl)acetamide] | 0.22 | > 500
Cc1cc(-c2ccc3c(=O)n(-c4ccc(Cl)c5c(NS(C)(=O)=O)nn(CC(F)F)c45)c([C@H](Cc4cc(F)cc(F)c4)NC(=O)Cn4nc(C(F)F)c5c4C(F)(F)[C@@H]4C[C@H]54)nc3c2)nc(C)n1 (atropisomer, axis not shown) [Example 131, N-[(1S)-1-{3-[4-chloro-1-(2,2-difluoroethyl)-3-methanesulfonamido-1H-indazol-7-yl]-7-(2,6-dimethylpyrimidin-4-y1)-4-oxo-3,4-dihydroquinazolin-2-y1}-2-(3,5-difluorophenyl)ethyl]-2-[(2S,4R)-9-(difluoromethyl)-5,5-difluoro-7,8-diazatricyclo[4.3.0.0^2,^4]nona-1(6),8-dien-7-yl]acetamide] | 0.038 | > 500
Cc1ncc(-c2ccc3c(=O)n(-c4ccc(Cl)c5c(NS(=O)(=O)C6CC6)nn(CC(F)F)c45)c([C@H](Cc4cc(F)cc(F)c4)NC(=O)Cn4nc(C(F)F)c5c4C(F)(F)[C@@H]4C[C@H]54)nc3c2)s1 (atropisomer, axis not shown) [Example 97, N-[(1S)-1-{3-[4-chloro-3-cyclopropanesulfonamido-1-(2,2-difluoroethyl)-1H-indazol-7-yl]-7-(2-methyl-1,3-thiazol-5-yl)-4-oxo-3,4-dihydroquinazolin-2-yl}-2-(3,5-difluorophenyl)ethyl]-2-[(2S,4R)-9-(difluoromethyl)-5,5-difluoro-7,8-diazatricyclo[4.3.0.0^2,^4]nona-1(6),8-dien-7-yl]acetamide] | 0.22 | > 500
Cc1nccc(-c2ccc3c(=O)n(-c4ccc(Cl)c5c(NS(C)(=O)=O)nn(CC(F)F)c45)c([C@H](Cc4cc(F)cc(F)c4)NC(=O)Cn4nc(C(F)F)c5c4C(F)(F)[C@@H]4C[C@H]54)nc3c2)n1 (atropisomer, axis not shown) [Example 121, N-[(1S)-1-{3-[4-chloro-1-(2,2-difluoroethyl)-3-methanesulfonamido-1H-indazol-7-yl]-7-(2-methylpyrimidin-4-yl)-4-oxo-3,4-dihydroquinazolin-2-yl}-2-(3,5-difluorophenyl)ethyl]-2-[(2S,4R)-9-(difluoromethyl)-5,5-difluoro-7,8-diazatricyclo[4.3.0.0^2,^4]nona-1(6),8-dien-7-yl]acetamide] | 0.067 | > 500
CS(=O)(=O)Nc1nn(CC(F)(F)F)c2c(-n3c([C@H](Cc4cc(F)cc(F)c4)NC(=O)Cn4nc(C(F)F)c5c4C(F)(F)[C@@H]4C[C@H]54)nc4cc(-c5cccnn5)ccc4c3=O)ccc(Cl)c12 (atropisomer, axis not shown) [Example 107, N-[(1S)-1-{3-[4-chloro-3-methanesulfonamido-1-(2,2,2-trifluoroethyl)-1H-indazol-7-yl]-4-oxo-7-(pyridazin-3-yl)-3,4-dihydroquinazolin-2-yl}-2-(3,5-difluoropheny)ethyl]-2-[(2S,4R)-9-(difluoromethyl)-5,5-difluoro-7,8-diazatricyclo[4.3.0.0^2,^4]nona-1(6),8-dien-7-yl]acetamide] | 0.048 | > 500
Cc1ccc(-c2ccc3c(=O)n(-c4ccc(Cl)c5c(NS(=O)(=O)C6CC6)nn(CC(F)F)c45)c([C@H](Cc4cc(F)cc(F)c4)NC(=O)Cn4nc(C(F)F)c5c4C(F)(F)[C@@H]4C[C@H]54)nc3c2)nn1 (atropisomer, axis not shown; (P)) [Example 88, N—((S)-1-((3P)-3-(4-chloro-3-(cyclopropanesulfonamido)-1-(2,2-difluoroethyl)-1H-indazol-7-yl)-7-(6-methylpyridazin-3-yl)-4-oxo-3,4-dihydroquinazolin-2-yl)-2-(3,5-difluorophenyl)ethyl)-2-((3bS,4aR)-3-(difluoromethyl)-5,5-difluoro-3b,4,4a,5-tetrahydro-1H-cyclopropa[3,4]cyclopenta[1,2-c]pyrazol-1-yl)acetamide] | 0.058 | > 500
CC(C)c1cccc(-c2ccc3c(=O)n(-c4ccc(Cl)c5c(NS(C)(=O)=O)nn(C)c45)c([C@H](Cc4cc(F)cc(F)c4)NC(=O)Cn4nc(C(F)F)c5c4C(F)(F)[C@@H]4C[C@H]54)nc3c2)n1 (atropisomer, axis not shown; (P)) [Example 46, N—((S)-1-((3P)-3-(4-chloro-1-methyl-3-(methylsulfonamido)-1H-indazol-7-yl)-7-(6-isopropylpyridin-2-yl)-4-oxo-3,4-dihydroquinazolin-2-yl)-2-(3,5-difluorophenyl)ethyl)-2-((3bS,4aR)-3-(difluoromethyl)-5,5-difluoro-3b,4,4a,5-tetrahydro-1H-cyclopropa[3,4]cyclopenta[1,2-c]pyrazol-1-yl)acetamide] | 0.23 | > 500
COc1cnc(-c2ccc3c(=O)n(-c4ccc(Cl)c5c(NS(C)(=O)=O)nn(C)c45)c([C@H](Cc4cc(F)cc(F)c4)NC(=O)Cn4nc(C(F)F)c5c4C(F)(F)[C@@H]4C[C@H]54)nc3c2)nc1 (atropisomer, axis not shown; (P)) [Example 34, N—((S)-1-((3P)-3-(4-chloro-1-methyl-3-(methylsulfonamido)-1H-indazol-7-yl)-7-(5-methoxypyrimidin-2-yl)-4-oxo-3,4-dihydroquinazolin-2-yl)-2-(3,5-difluorophenyl)ethyl)-2-((3bS,4aR)-3-(difluoromethyl)-5,5-difluoro-3b,4,4a,5-tetrahydro-1H-cyclopropa[3,4]cyclopenta[1,2-c]pyrazol-1-yl)acetamide] | 0.058 | > 500
CCc1ccnc(-c2ccc3c(=O)n(-c4ccc(Cl)c5c(NS(C)(=O)=O)nn(C)c45)c([C@H](Cc4cc(F)cc(F)c4)NC(=O)Cn4nc(C(F)F)c5c4C(F)(F)[C@@H]4C[C@H]54)nc3c2)n1 (atropisomer, axis not shown; (P)) [Example 43, N—((S)-1-((3P)-3-(4-chloro-1-methyl-3-(methylsulfonamido)-1H-indazol-7-yl)-7-(4-ethylpyrimidin-2-yl)-4-oxo-3,4-dihydroquinazolin-2-yl)-2-(3,5-difluorophenyl)ethyl)-2-((3bS,4aR)-3-(difluoromethyl)-5,5-difluoro-3b,4,4a,5-tetrahydro-1H-cyclopropa[3,4]cyclopenta[1,2-c]pyrazol-1-yl)acetamide] | 0.058 | > 500
CC(C)c1nccc(-c2ccc3c(=O)n(-c4ccc(Cl)c5c(NS(C)(=O)=O)nn(C)c45)c([C@H](Cc4cc(F)cc(F)c4)NC(=O)Cn4nc(C(F)F)c5c4C(F)(F)[C@@H]4C[C@H]54)nc3c2)n1 (atropisomer, axis not shown; (P)) [Example 67, N—((S)-1-((3P)-3-(4-chloro-1-methyl-3-(methylsulfonamido)-1H-indazol-7-yl)-7-(2-isopropylpyrimidin-4-yl)-4-oxo-3,4-dihydroquinazolin-2-yl)-2-(3,5-difluorophenyl)ethyl)-2-((3bS,4aR)-3-(difluoromethyl)-5,5-difluoro-3b,4,4a,5-tetrahydro-1H-cyclopropa[3,4]cyclopenta[1,2-c]pyrazol-1-yl)acetamide] | 0.15 | > 500
CC(C)(C)S(=O)(=O)c1ccccc1-c1ccc2c(=O)n(-c3ccc(Cl)c4c(NS(C)(=O)=O)nn(CC(F)F)c34)c([C@H](Cc3cc(F)cc(F)c3)NC(=O)Cn3nc(C(F)F)c4c3C(F)(F)[C@@H]3C[C@H]43)nc2c1 (atropisomer, axis not shown) [Example 130] | 0.13 | > 500
